Values quoted from earlier work in patent US20170015852A1, “INK COMPOSITION” (KERACOL LIMITED, priority 2014, published 2017).

Legend:
human health = details: toxicological reports; approved food colorants E100, E120, E163
rats = details: high doses

SMILES | threat to human health (human health) | solubility in ethanol [% w/v] | carcinogenicity (rats)
Cc1c(C(=O)O)c(O)cc2c1C(=O)c1c(O)c([C@@H]3O[C@H](CO)[C@@H](O)[C@H](O)[C@H]3O)c(O)c(O)c1C2=O [carminic acid] | pose no threat to human health |  | 
O=C1OC2(c3ccccc31)c1cc(I)c(O)c(I)c1Oc1c2cc(I)c(O)c1I [erythrosine] |  | 0.79 | cause cancer
